Biological target: T1, hM4D(Gi) (human M4 muscarinic receptor-based DREADD) (Homo sapiens, UniProt P08173, A203G/Y113C)
T1 construct: gene CHRM4; hM4D(Gi) plasmid (Addgene 45548)
T1 sequence (P08173 1-479 Y113C/A203G): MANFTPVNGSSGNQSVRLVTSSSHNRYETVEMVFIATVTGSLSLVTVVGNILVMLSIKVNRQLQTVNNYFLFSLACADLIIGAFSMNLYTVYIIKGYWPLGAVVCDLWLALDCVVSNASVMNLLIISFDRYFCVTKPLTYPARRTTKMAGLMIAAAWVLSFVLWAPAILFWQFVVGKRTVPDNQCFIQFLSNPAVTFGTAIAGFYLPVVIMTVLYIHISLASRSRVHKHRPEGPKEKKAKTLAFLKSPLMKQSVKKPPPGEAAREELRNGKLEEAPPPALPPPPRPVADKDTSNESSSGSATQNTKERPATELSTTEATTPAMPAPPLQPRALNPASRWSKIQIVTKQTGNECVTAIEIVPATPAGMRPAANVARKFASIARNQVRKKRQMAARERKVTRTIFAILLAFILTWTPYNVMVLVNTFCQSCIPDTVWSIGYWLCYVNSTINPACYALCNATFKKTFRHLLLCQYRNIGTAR
Experiment: whole-cell patch clamp of Kir3.[…] current potentiation in HEK cells transfected with hM4D(Gi)
Assay type: cell-based

EC50 [µM]	SMILES
0.04 ± 0.01	CN1CCN(C2=Nc3ccccc3Cc3ccccc32)CC1 [PLP, perlapine]
0.02 ± 0.004	c1ccc2c(c1)N=C(N1CCNCC1)c1ccccc1N2 [C21, compound 21]

Source: paper PMC6469940 (Science Advances, 2019)
